Results taken from US20240150338A1, “COMPOUNDS AND USE THEREOF FOR TREATMENT OF NEURODEGENERATIVE, DEGENERATIVE AND METABOLIC DISORDERS” (University of Florida Research Foundation, Incorporated, priority 2021, published 2024).

Assays:
[1] = Microsomal stability assay; assay type: in vitro ADME; conditions: 1 mg/ml human hepatic microsomes, 37° C., half-life by LC-MS/MS; yes = stability ≥15 minutes
Protocol: The metabolic stability of some test compounds was determined in hepatic human and mouse microsomes. The compound was incubated with 1 mg/ml human or mouse hepatic microsomes at 37° C. with continuous shaking. Aliquots were removed at various time points between 5 minutes and 2 hours and acetonitrile was added to quench the reactions and precipitate the proteins. Samples were then centrifuged through 0.45 μm filter plates and half-lives were determined by LC-MS/MS.

[2] = system: PK1 neuroblastoma cells exposed to TPrP; test: cells; assay type: cell-based; conditions: Neuroblastoma cell, 96 h, read-out: TPrP EC50

| SMILES | Stabilty in human microsomes ≥ 15 minutes [1] | EC50 [2] [nM] |
| --- | --- | --- |
| Cc1cc(-c2csc(Nc3ccc(S(N)(=O)=O)cc3)n2)ccn1 [SR-33124, 4-((4-(2-Methylpyridin-4-yl)thiazol-2-yl)amino)benzenesulfonamide] | yes | 30 |
| O=S(=O)(O)c1ccc(Nc2nc(-c3ccncc3)cs2)cc1 [SR-33785, 4-((4-(Pyridin-4-yl)thiazol-2-yl)amino)benzenesulfonic acid] | yes | 40 |
| Cc1cc(-c2csc(Nc3ccc(S(C)(=O)=O)cc3)n2)ccn1 [SR-33793, 4-(2-Methylpyridin-4-yl)-N-(4-(methylsulfonyl)phenyl)thiazol-2-amine] | yes | 20 |
| CS(=O)(=O)c1ccc(Nc2nc(-c3ccncc3)cs2)cc1 [SR-33788, N-(4-(methylsulfonyl)phenyl)-4-(pyridin-4-yl)thiazol-2-amine] | yes | 80 |
| COc1cc(-c2csc(Nc3ccc(S(N)(=O)=O)cc3)n2)cc(OC)n1 [SR-33790, 4-((4-(2,6-Dimethoxypyridin-4-yl)thiazol-2-yl)amino)benzenesulfonamide] | yes | 35 |
| NS(=O)(=O)c1ccc(Nc2nc(-c3ccc(S(=O)(=O)Nc4ccccc4)cc3)c(CO)s2)cc1 [SR-34773, 4-(5-(Hydroxymethyl)-2-((4-sulfamoylphenyl)amino)thiazol-4-yl)-N-phenylbenzenesulfonamide] | yes | 300 |
| Cc1cc(-c2csc(Nc3ccc(S(=O)(=O)O)cc3)n2)ccn1 [SR-33126, 4-((4-(2-Methylpyridin-4-yl)thiazol-2-Yl)amino)benzenesulfonic acid] | yes | 25 |
| Cc1ccc(-c2csc(Nc3ccc(S(C)(=O)=O)cc3)n2)cc1 [SR-35731, N-(4-(methylsulfonyl)phenyl)-4-(p-tolyl)thiazol-2-amine] | yes | > 500 |
| CS(=O)(=O)c1ccc(Nc2nc(-c3ccnc(Cl)c3)c(CO)s2)cc1Cl [SR-33529, (2-((3-Chloro-4-(methylsulfonyl)phenyl)amino)-4-(2-chloropyridin-4-yl)thiazol-5-yl)methanol] | yes | 80 |
| COc1cc(-c2nc(Nc3ccc(S(C)(=O)=O)c(Cl)c3)sc2CO)cc(OC)n1 [SR-33800, (2-((3-Chloro-4-(methylsulfonyl)phenyl)amino)-4-(2,6-dimethoxypyridin-4-yl)thiazol-5-yl)methanol] | yes | 55 |
| CC(C)c1ccc(-c2csc(Nc3ccc(S(C)(=O)=O)cc3)n2)cc1 [SR-35789, 4-(4-Isopropylphenyl)-N-(4-(methylsulfonyl)phenyl)thiazol-2-amine] | yes | > 500 |
| Cc1cc(-c2csc(Nc3ccc(CS(C)(=O)=O)cc3)n2)ccn1 [SR-35786, 4-(2-Methylpyridin-4-yl)-N-(4-((methylsulfonyl)methyl)phenyl)thiazol-2-amine] | yes | 14 |
| CNS(=O)(=O)c1ccc(-c2csc(Nc3ccc(CS(C)(=O)=O)cc3)n2)cc1 [SR-35727, N-methyl-4-(2-((4-((methylsulfonyl)methyl)phenyl)amino)thiazol-4-yl)benzenesulfonamide] | yes | 18 |
| Cc1cc(-c2nc(Nc3ccc(S(=O)(=O)O)cc3)sc2CO)ccn1 [SR-33526, 4-((5-(Hydroxymethyl)-4-(2-methylpyridin-4-yl)thiazol-2-yl)amino)benzenesulfonic acid] | yes | 150 |
| COc1cc(-c2nc(Nc3ccc(S(C)(=O)=O)cc3)sc2CO)cc(OC)n1 [SR-33796, (4-(2,6-Dimethoxypyridin-4-yl)-2-((4-(methylsulfonyl)phenyl)amino)thiazol-5-yl)methanol] | yes | 450 |
| COc1cccc(-c2csc(Nc3ccc(S(C)(=O)=O)cc3)n2)c1 [SR-35788, 4-(3-Methoxyphenyl)-N-(4-(methylsulfonyl)phenyl)thiazol-2-amine] | yes | 170 |
| Cc1cc(-c2nc(Nc3ccc(S(C)(=O)=O)cc3)sc2CO)cc(C)n1 [SR-33794, (4-(2,6-Dimethylpyridin-4-yl)-2-((4-(methylsulfonyl)phenyl)amino)thiazol-5-yl)methanol] | yes | 70 |
| Cc1cc(-c2nc(Nc3ccc(S(N)(=O)=O)cc3)sc2CO)ccn1 [SR-33524, 4-((5-(Hydroxmethyl)-4-(2-methylpyridin-4-yl)thiazol-2-yl)amino)benzenesulfonamide] | yes | 60 |
| O=S(=O)(O)c1ccc(Nc2nc(-c3ccnc(Cl)c3)cs2)cc1 [SR-33128, 4-((4-(2-Chloropyridin-4-yl)thiazol-2-yl)amino)benzenesulfonic acid] | yes | > 500 |
| Cc1cc(-c2csc(Nc3ccc(S(=O)(=O)O)cc3)n2)cc(C)n1 [SR-33784, 4-((4-(2,6-Dimethylpyridin-4-yl)thiazol-2-yl)amino)benzenesulfonic acid] | yes | 25 |
| CC(C)NS(=O)(=O)c1ccc(-c2csc(Nc3ccc(S(N)(=O)=O)cc3)n2)cc1 [SR-34770, N-isopropyl-4-(2-((4-sulfamoylphenyl)amino)thiazol-4-yl)benzenesulfonamide] | yes | 300 |
| Cc1cc(-c2nc(Nc3ccc(S(=O)(=O)O)cc3)sc2CO)cc(C)n1 [SR-33801, 4-((4-(2,6-Dimethylpyridin-4-yl)-5-(hydroxymethyl)thiazol-2-yl)amino)benzenesulfonic acid] | yes | 40 |
| COc1cc(-c2csc(Nc3ccc(S(C)(=O)=O)c(C(F)(F)F)c3)n2)ccn1 [SR-34985, 4-(2-Methoxypyridin-4-yl)-N-(4-(methylsulfonyl)-3-(trifluoromethyl)phenyl)thiazol-2-amine] | – | 335 |
| COc1cc(-c2csc(Nc3ccc(S(C)(=O)=O)c(C(F)(F)F)c3)n2)cc(OC)n1 [SR-34986, 4-(2,6-Dimethoxypyridin-4-yl)-N-(4-(methylsulfonyl)-3-(trifluoromethyl)phenyl)thiazol-2-amine] | – | > 500 |
| CC(C)NS(=O)(=O)c1ccc(-c2nc(Nc3ccc(S(C)(=O)=O)cc3)sc2CO)cc1 [SR-34971, 4-(5-(Hydroxymethyl)-2-((4-(methylsulfonyl)phenyl)amino)thiazol-4-yl)-N-isopropylbenzenesulfonamide] | – | > 500 |
| Cc1cc(-c2nc(Nc3ccc(S(C)(=O)=O)c(F)c3)sc2CO)ccn1 [SR-34978, (2-((3-Fluoro-4-(methylsulfonyl)phenyl)amino)-4-(2-methylpyridin-4-yl)thiazol-5-yl)methanol] | – | 320 |
| NS(=O)(=O)c1ccc(Nc2nc(-c3ccc(S(=O)(=O)N4CCOCC4)cc3)c(CO)s2)cc1 [SR-34764, 4-((5-(Hydroxymethyl)-4-(4-(morpholinosulfonyl)phenyl)thiazol-2-yl)amino)benzenesulfonamide] | – | 60 |
